In PubChem BioAssay (NCI):
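Values below derive from 48-hour exposures of cells grown in 96-well plates, with endpoints linearly interpolated between the two concentrations bracketing the appropriate inhibition level. TGI denotes the concentration required for complete inhibition of growth.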

Tests used:
Assay in all cases: DTP human tumour cell line panel, 48 h
[1] = test system: HL-60(TB) leukemia
[2] = test system: A549 NSCLC
[3] = test system: SNB-78 CNS
[4] = test system: BT-549 breast
[5] = test system: MDA-MB-231 breast
[6] = test system: HCT-116 colon
[7] = test system: M19-MEL melanoma
[8] = test system: DMS 114 small cell lung
[9] = test system: DMS 273 small cell lung
[10] = test system: MCF7 breast
[11] = test system: OVCAR-5 ovarian
[12] = test system: DLD-1 colon
[13] = test system: NCI-H460 lung
[14] = test system: LXFL 529 NSCLC
[15] = test system: KM20L2 colon

Compound	TGI [1] [µM]	TGI [2] [µM]	TGI [3] [µM]	TGI [4] [µM]	TGI [5] [µM]	TGI [6] [µM]	TGI [7] [µM]	TGI [8] [µM]	TGI [9] [µM]	TGI [10] [µM]	TGI [11] [µM]	TGI [12] [µM]	TGI [13] [µM]	TGI [14] [µM]	TGI [15] [µM]
Cc1ccc(S(=O)(=O)C2=c3ncccc3=C3C(=O)c4ccccc4C(=O)C32)cc1 (stereo not given)	> 100	> 100	> 100	> 88.6	> 100	> 100	> 100	> 100	> 100	> 100	> 83.9	> 100	> 56.9	> 100	–
C[n+]1c2ccccc2c(NC(CCC(N)=O)C(=O)O)c2ccccc21 (stereo not given)	> 100	> 100	> 100	–	–	> 100	> 100	> 100	> 100	–	> 100	> 100	> 100	> 100	> 100
CCCCCCCCCCCCCCCCCC(=O)NCCCNCCCNC(=O)CCCCCCCCCCCCCCCCC	> 100	> 100	–	–	–	> 100	> 100	> 100	> 100	–	> 100	> 100	> 100	> 100	> 100
Cc1ccc(N2C(=O)/C(=c3\s/c(=C(/N)O)c(=N)n3-c3ccccc3)SC2=S)cc1	> 100	> 100	–	–	–	> 100	> 100	–	–	–	> 100	> 100	> 100	> 100	–
CCOc1ccc(N=Cc2cc(OC)c(OC)c(OC)c2)cc1	> 100	> 100	> 100	–	–	> 100	> 100	> 100	> 100	–	> 100	> 100	> 100	> 100	> 100
CC1=NN(C(=O)c2ccc(Cl)cc2)C(=O)/C1=C/c1cccc(O)c1	> 100	> 100	> 100	–	–	> 100	> 100	> 100	–	–	> 100	> 100	> 100	> 100	> 100
Cc1c2n(c3ccccc13)CC1C2N(C)OC1(C)C (stereo not given)	–	> 100	> 100	–	–	> 100	> 100	> 100	> 100	–	> 100	> 100	> 100	–	> 100
CC(C)(C)C1CCC2c3c([nH]c4ccccc34)C3C(=O)N(c4ccc(Br)cc4)C(=O)C3C2C1 (stereo not given)	29.5	47.5	> 100	–	–	91.9	33.2	41.6	31.9	–	56.5	> 100	38.9	48.1	42.2
CCC12C=CCN3CC[C@]4(C(=C(C(=O)OC)[C@@H]1Nc1ccn(C5OC(COC(C)=O)C(OC(C)=O)C5OC(C)=O)c(=O)n1)Nc1ccccc14)C32 (stereo not given in full)	12.6	15.1	13.8	–	–	7.37	7.45	–	8.54	–	3.6	9.14	8.62	8.94	8.19
Cc1[nH]n(-c2ccccc2)c(=S)c1C(=O)c1ccccc1	> 100	> 100	64.8	–	–	–	–	99.1	> 100	–	> 100	60.9	–	37.2	> 100
